The target of this assay is T1, purified human IDO protein (Homo sapiens, UniProt P14902, E119G/P110S).
T1 construct: 6-Histidine tag (C); made in house; host or cells: E. coli M15(pREP4) transformed with pQE70-hIDO
Description: Enzymatic IDO assay (kynurenine formation, absorbance at 480 nm). The format is biochemical. To be noted: recombinant human IDO, 200 μM L-tryptophan, pH 6.5; reported in ranges. On the procedure: The inhibitors were initially diluted in DMSO at 100 mM and were diluted in potassium phosphate 50 mM, added to the reaction mixture at final concentrations raging from 1 mM to 5 nM and preincubated with the enzyme for 5 min at 25° C. The reaction was started by addition of L-tryptophan to 200 μM and incubated 15 min at 37° C. The reaction was stopped by addition of 0.5 vol of 30% trichloroacetic acid and incubated 30 min at 60° C. to hydrolyze N-formylkynurenine to kynurenine. The reaction was centrifuged at 3400 g for 5 min to remove precipitated protein and the supernatant was reacted with 2% (w/v) of p-dimethylaminobenzaldehyde in acetic acid. The reaction was incubated 10 min at 25° C. and read at 480 nm in a spectrophotometer. […] Nonlinear regressions and determination of the IC50 values were performed using the GraphPad Prism 4 software.

T1 sequence (P14902 whole entry P110S/E119G): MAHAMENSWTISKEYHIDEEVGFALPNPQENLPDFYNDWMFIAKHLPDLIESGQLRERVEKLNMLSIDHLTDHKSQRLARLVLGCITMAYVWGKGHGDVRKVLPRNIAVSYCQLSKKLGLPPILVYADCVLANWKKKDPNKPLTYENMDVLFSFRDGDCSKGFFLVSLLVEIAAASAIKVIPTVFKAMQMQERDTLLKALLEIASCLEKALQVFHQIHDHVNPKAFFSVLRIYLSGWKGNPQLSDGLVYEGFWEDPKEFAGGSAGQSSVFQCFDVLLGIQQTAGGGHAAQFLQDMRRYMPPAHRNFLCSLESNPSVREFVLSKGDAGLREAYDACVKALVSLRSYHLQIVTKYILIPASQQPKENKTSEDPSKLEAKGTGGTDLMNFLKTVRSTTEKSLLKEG

A word on the IC50: it is the concentration that inhibits the measured activity by half. Take `Oc1c(Br)cccc1-c1cnc[nH]1` [Compound 35, 2-bromo-6-(1H-imidazol-5-yl)phenol]: the IC50 was less than 20 µM. `NC(=O)COc1ccccc1-c1c[nH]cn1` [Compound 104, 2-(2-(1H-imidazol-4-yl)phenoxy)acetamide]: the concentration for half-maximal inhibition (IC50) lay within 100 to 500 µM.

As for `Brc1ccc(-c2c[nH]cn2)cc1` [Compound 70, 5-(4-bromophenyl)-1H-imidazole], the half-inhibitory concentration (IC50) is 20 to 100 µM. For `COc1ccc(Cn2cncc2-c2ccccc2)cc1` [Compound 68, 1-(4-methoxybenzyl)-5-phenyl-1H-imidazole] the value was 20 to 100 µM; for `Clc1ccc(CCOc2ccccc2-c2c[nH]cn2)cc1` [Compound 61, 4-(2-(4-chlorophenethoxy)phenyl)-1H-imidazole], 20 to 100 µM. Take `Clc1cccc(COc2ccccc2-c2cnc[nH]2)c1` [Compound 29, 5-(2-(3-chlorobenzyloxy)phenyl)-1H-imidazole]: the IC50 is less than 20 µM. For `Nc1ccccc1-c1cnc[nH]1` [Compound 155, 2-(1H-imidazol-4-yl)aniline] the value was 20 to 100 µM; for `CCOC(=O)CCn1cncc1-c1ccccc1` [Compound 122, ethyl 3-(5-phenyl-1H-imidazol-1-yl)propanoate], 100 to 500 µM.

For `CC(=O)Nc1ccc(CCOc2ccccc2-c2c[nH]cn2)cc1` [Compound 34, N-(4-(2-(2-(1H-imidazol-4-yl)phenoxy)ethyl)phenyl) acetamide], the IC50 was less than 20 µM. For `CC(C)(C)OC(=O)NCCn1cncc1-c1ccccc1` [Compound 114, tert-butyl 2-(5-phenyl-1H-imidazol-1-yl)ethylcarbamate] the value was 100 to 500 µM; for `CNC(=O)CCCn1cncc1-c1ccccc1` [Compound 128, N-methyl-4-(5-phenyl-1H-imidazol-1-yl)butanamide], 100 to 500 µM; for `O=C(O)c1cccc(-c2c[nH]cn2)c1` [Compound 113, 3-(1H-imidazol-4-yl)benzoic acid], 100 to 500 µM. Take `CNC(=O)c1cccc(CCOc2ccccc2-c2c[nH]cn2)c1` [Compound 50, 3-(2-(2-(1H-imidazol-4-yl)phenoxy)ethyl)-N-methylbenzamide]: the IC50 was less than 20 µM. The result for `COC(=O)Cn1cncc1-c1ccccc1` [Compound 105, methyl 2-(5-phenyl-1H-imidazol-1-yl)acetate] reads 100 to 500 µM; that for `CC(C)(CCOc1ccccc1-c1c[nH]cn1)CCn1c(=O)c(F)cn([C@@H]2O[C@H](CO)[C@@H](O)[C@H]2O)c1=O` [Compound 162, 3-(5-(2-(1H-imidazol-4-yl)phenoxy)-3,3-dimethylpentyl)-1-((2R,3R,4S,5R)-3,4-dihydroxy-5-(hydroxymethyl)tetrahydrofuran-2-yl)-5-fluoropyrimidine-2,4(1H,3H)-dione], less than 20 µM. On to `COC(=O)CCC(C)(C)CCOc1ccccc1-c1c[nH]cn1` [Compound 79, methyl 6-(2-(1H-imidazol-4-yl)phenoxy)-4,4-dimethylhexanoate], for which the half-maximal inhibitory concentration (IC50) was 20 to 100 µM.

The values are drawn from patent US9174942B2, “IDO inhibitors” (NewLink Genetics Corporation, priority 2008, dated 2015).
